Measurements taken from US20250051347A1, “BIFUNCTIONAL CHIMERIC HETEROCYCLIC COMPOUND AND USE THEREOF AS ANDROGEN RECEPTOR DEGRADER” (Hinova Pharmaceuticals, Inc., priority 2021, published 2025).

Target: T1, androgen receptor (AR) splicing variant AR-v7 (Homo sapiens, UniProt P10275)
T1 construct: The degradation activity of compounds on AR-v7 in 22RV1 cells; host or cells: 22RV1 cells
T1 sequence (P10275 1-644 isoform P10275-3): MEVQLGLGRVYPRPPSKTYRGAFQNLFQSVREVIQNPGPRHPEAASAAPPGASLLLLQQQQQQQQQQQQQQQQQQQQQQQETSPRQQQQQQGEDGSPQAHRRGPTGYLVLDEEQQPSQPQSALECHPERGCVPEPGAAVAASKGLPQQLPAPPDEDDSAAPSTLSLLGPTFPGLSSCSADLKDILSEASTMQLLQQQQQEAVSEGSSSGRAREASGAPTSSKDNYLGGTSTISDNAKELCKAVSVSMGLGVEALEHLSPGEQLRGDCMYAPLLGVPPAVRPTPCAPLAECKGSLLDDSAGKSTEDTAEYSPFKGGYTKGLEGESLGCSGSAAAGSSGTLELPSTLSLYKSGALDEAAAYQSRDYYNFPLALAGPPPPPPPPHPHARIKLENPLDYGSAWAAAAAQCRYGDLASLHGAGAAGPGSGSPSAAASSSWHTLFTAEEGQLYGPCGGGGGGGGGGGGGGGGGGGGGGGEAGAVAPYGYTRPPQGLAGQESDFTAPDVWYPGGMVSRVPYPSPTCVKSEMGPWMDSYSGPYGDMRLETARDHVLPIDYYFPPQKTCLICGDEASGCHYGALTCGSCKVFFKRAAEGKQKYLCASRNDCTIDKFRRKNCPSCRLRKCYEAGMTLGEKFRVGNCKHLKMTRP
Assay: Degradation activity on androgen receptor splicing variant AR-v7 in 22RV1 cells (ELISA)
Type: cell-based
Settings: AR-v7 degradation in 22RV1 cells, 48 h, class symbols
Method: The degradation activity of the compound of the present invention on the androgen receptor splicing variant AR-V7 was analyzed using enzyme-linked immunosorbent assay (ELISA).
The plate was cultured in a 5% CO2 cell incubator at 37° C. for 2 days until the cells adhered to the wall. • 2) The drug was prepared into 10 mM stock solution with dimethylsulfoxide (DMSO). […] The plate was gently shaken and mixed. In addition, negative control wells (only containing culture medium) and positive control wells (only containing cells and DMSO) were set. • 3) After the cells were cultured in an incubator for 48 h, the medium was removed and the cells were rinsed once with ice cold PBS. Then, ice-cold 1× cell lysis buffer was added to each well of the cell culture plate. After the plate was incubated on ice for 15 min, the plate was tapped to mix. • 4) The supernatant of the cell lysate was transferred from the cell culture plate to a […] plate for ELISA. • 5) The newly prepared Capture antibody (green) was mixed with the newly prepared HRP-labeled antibody (red), and then the antibody mixture was added to the above 96-well ELISA plate. • 6) The ELISA plate was sealed with plastic film, and then incubated in a 25° C. incubator for 1 h. • 7) The washing buffer was added to each well, and then TMB substrate was added to each well of the ELISA plate. Subsequently, the plate was cultured in an incubator at 37° C. for 5 min. • 8) 100 μl of stop solution was added to each well of the ELISA plate, and the plate was gently tapped for several seconds. The absorbance was read at 450 nm within 30 min. The data were analyzed by the Dose-response equation in the software GraphPad Prism8, to obtain DC50 and Dmax values.

Compared with `CC(C)(c1ccc(OCCNC(=O)c2ccc3c(c2)C(=O)N(C2CCC(=O)NC2=O)C3=O)cc1)c1ccc(OCc2ccnc(N3CC4(COC4)C3)n2)cc1` (centres unmarked) [Example 114, N-(2-(4-(2-(4-((2-(2-oxa-6-azaspiro[3.3]heptan-6-yl)pyrimidin-4-yl)methoxy)phenyl)propan-2-yl)phenoxy)ethyl)-2-(2,6-dioxopiperidin-3-yl)-1,3-dioxoisoindolin-5-carbonylamine], `CC(C)(c1ccc(OCC(=O)Nc2ccc3c(c2)C(=O)N(C2CCC(=O)NC2=O)C3=O)cc1)c1ccc(OCc2ccnc(N3CC4(COC4)C3)n2)cc1` (centres unmarked) [Example 568] is lower in DC50: 1000 to 5000 nM for the first, 11 to 100 nM for the second.

`CC(=O)c1nccc(COc2ccc(C(C)(C)c3ccc(N4CCC5(CCN(c6ccc7c(c6)C(=O)N(C6CCC(=O)NC6=O)C7=O)C5)C4)cc3)cc2)n1` (centres unmarked) [Example 560] and `CC(=O)c1nccc(COc2ccc(C(C)(C)c3ccc(N4CCC5(CC4)CN(c4ccc6c(c4)C(=O)N(C4CCC(=O)NC4=O)C6=O)C5)cc3)cc2)n1` (centres unmarked) [Example 305] fall in the same range of DC50: 1000 to 5000 nM for the first, 1000 to 5000 nM for the second.

First: COC(=O)c1nccc(COc2ccc(C(C)(C)c3ccc(OCCCNc4ccc5c(c4)C(=O)N(C4CCC(=O)NC4=O)C5=O)cc3)cc2)n1 (centres unmarked) [Example 184]
Second: CC(C)(c1ccc(OCCCNc2ccc3c(c2)C(=O)N(C2CCC(=O)NC2=O)C3=O)cc1)c1ccc(OCc2nc(C(N)=O)cs2)cc1 (centres unmarked) [Example 441, 2-((4-(2-(4-(3-((2-(2,6-dioxopiperidin-3-yl)-1,3-dioxoisoindolin-5-yl)amino)propoxy)phenyl)propan-2-yl)phenoxy)methyl) thiazol-4-carbonylamine]
The DC50 of the first is higher: 1000 to 5000 nM for the first, 11 to 100 nM for the second.

First: CCN1CC(Oc2ncnc(Oc3ccc(C(C)(C)c4ccc(O[C@H]5C[C@@H](Nc6ccc7c(c6)C(=O)N(C6CCC(=O)NC6=O)C7=O)C5)cc4)cc3)c2F)C1 (some centres unmarked) [Example 576]
Second: CN1CC[C@@H](Oc2nccc(COc3ccc(C(C)(C)c4ccc(O[C@H]5C[C@@H](Nc6ccc7c(c6)C(=O)N(C6CCC(=O)NC6=O)C7=O)C5)cc4)cc3)n2)C1 (some centres unmarked) [Example 243]
The DC50 of the first is higher: 11 to 100 nM for the first, less than 10 nM for the second.

First: CC(C)(c1ccc(OCCCNc2cccc3c2C(=O)N(C2CCC(=O)NC2=O)C3=O)cc1)c1ccc(OCc2ccnc(N3CCC3)n2)cc1 (centres unmarked) [Example 554, 4-((3-(4-(2-(4-((2-(azetidin-1-yl)pyrimidin-4-yl)methoxy)phenyl)propan-2-yl)phenoxy)propyl)amino)-2-(2,6-dioxopiperidin-3-yl)isoindolin-1,3-dione]
Second: CC(C)(c1ccc(OCc2ccnc(NS(C)(=O)=O)n2)cc1)c1ccc(OCC2CN(c3cccc4c3C(=O)N(C3CCC(=O)NC3=O)C4=O)C2)cc1 (centres unmarked) [Example 49, N-(4-((4-(2-(4-((1-(2-(2,6-dioxopiperidin-3-yl)-1,3-dioxoisoindolin-4-yl)azetidin-3-yl)methoxy)phenyl)propan-2-yl)phenoxy)methyl)pyrimidin-2-yl)methanesulfonamide]
The DC50 of the first is lower: 101 to 1000 nM for the first, 1000 to 5000 nM for the second.

Compared with `CC(c1ccc(Oc2cnc(-n3ccnn3)nc2)cc1)c1ccc(O[C@H]2C[C@H](Nc3ccc4c(c3)C(=O)N(C3CCC(=O)NC3=O)C4=O)C2)cc1` (some centres unmarked) [Example 519], `CC(C)(c1ccc(Oc2cnc(C(=O)O)nc2)cc1)c1ccc(O[C@H]2C[C@H](Nc3ccc4c(c3)C(=O)N(C3CCC(=O)NC3=O)C4=O)C2)cc1` (some centres unmarked) [Example 267, 5-(4-(2-(4-((1r,3r)-3-((2-(2,6-dioxopiperidin-3-yl)-1,3-dioxoisoindolin-5-yl)amino)cyclobutyloxy)phenyl)propan-2-yl)phenoxy)pyrimidin-2-carboxylic acid] is higher in DC50: 11 to 100 nM for the first, 101 to 1000 nM for the second.

First: CC(C)(c1ccc(OCCCCCCCCOCCCCNc2ccc3c(c2)C(=O)N(C2CCC(=O)NC2=O)C3=O)cc1)c1ccc(OCc2ccnc(NS(=O)(=O)C3CC3)n2)cc1 (centres unmarked) [Example 50]
Second: CC(=O)Nc1nccc(COc2ccc(C(C)(C)c3ccc(OCCCCCCCCOCCCCNc4ccc5c(c4)C(=O)N(C4CCC(=O)NC4=O)C5=O)cc3)cc2)n1 (centres unmarked) [Example 26, N-(4-((4-(2-(4-((8-(4-((2-(2,6-dioxopiperidin-3-yl)-1,3-dioxoisoindolin-5-yl)amino)butoxy)octyl)oxy)phenyl)propan-2-yl)phenoxy)methyl)pyrimidin-2-yl)acetamide]
The DC50 of the first is lower: 101 to 1000 nM for the first, 1000 to 5000 nM for the second.

First: CC(C)(c1ccc(OCc2ccnc(N3CC4(COC4)C3)n2)cc1)c1ccc(OC2CC3(CC(Nc4ccc5c(c4)C(=O)N(C4CCC(=O)NC4=O)C5=O)C3)C2)cc1 (centres unmarked) [Example 567, 5-((6-(4-(2-(4-((2-(2-oxa-6-azaspiro[3.3]heptan-6-yl)pyrimidin-4-yl)methoxy)phenyl)propan-2-yl)phenoxy)spiro[3.3]heptan-2-yl)amino)-2-(2,6-dioxopiperidin-3-yl)isoindolin-1,3-dione]
Second: CC(C)(c1ccc(OCc2ccnc(N3CC4(COC4)C3)n2)cc1)c1ccc(OCC2(Nc3ccc4c(c3)C(=O)N(C3CCC(=O)NC3=O)C4=O)CCC2)cc1 (centres unmarked) [Example 498, 5-((1-((4-(2-(4-((2-(2-oxa-6-azaspiro[3.3]heptan-6-yl)pyrimidin-4-yl)methoxy)phenyl)propan-2-yl)phenoxy)methyl)cyclobutyl)amino)-2-(2,6-dioxopiperidin-3-yl)isoindolin-1,3-dione]
The DC50 of the first is higher: 101 to 1000 nM for the first, 11 to 100 nM for the second.

First: CC(C)(c1ccc(OCc2ccnc(N3CC4(COC4)C3)n2)cc1)c1ccc(OC2CCN(Cc3ccc4c(c3)C(=O)N(C3CCC(=O)NC3=O)C4=O)CC2)cc1 (centres unmarked) [Example 147, 5-((4-(4-(2-(4-((2-(2-oxa-6-azaspiro[3.3]heptan-6-yl)pyrimidin-4-yl)methoxy)phenyl)propan-2-yl)phenoxy)piperidin-1-yl)methyl)-2-(2,6-dioxopiperidin-3-yl)isoindolin-1,3-dione]
Second: CC(C)(c1ccc(OCc2ccnc(OC3CCOCC3)n2)cc1)c1ccc(O[C@H]2C[C@H](Nc3ccc4c(c3)C(=O)N(C3CCC(=O)NC3=O)C4=O)C2)cc1 (some centres unmarked) [Example 368, 2-(2,6-dioxopiperidin-3-yl)-5-(((1r,3r)-3-(4-(2-(4-((2-((tetrahydro-2H-pyran-4-yl)oxy)pyrimidin-4-yl)methoxy)phenyl)isopropan-2-yl)phenoxy)cyclobutyl)amino)isoindolin-1,3-dione]
The DC50 of the first is higher: 1000 to 5000 nM for the first, 11 to 100 nM for the second.

`C[C@@H]1CN(C)[C@@H](C)CN1c1nccc(COc2ccc(C(C)(C)c3ccc(O[C@H]4C[C@@H](Nc5ccc6c(c5)C(=O)N(C5CCC(=O)NC5=O)C6=O)C4)cc3)cc2)n1` (some centres unmarked) [Example 412] and `CC(C)(c1ccc(Oc2ccc(-n3cccn3)nc2)cc1)c1ccc(O[C@H]2C[C@@H](Nc3ccc4c(c3)C(=O)N(C3CCC(=O)NC3=O)C4=O)C2)cc1` (some centres unmarked) [Example 542] fall in the same range of DC50: 11 to 100 nM for the first, 11 to 100 nM for the second.

Same assay, conditions: AR-v7 degradation in 22RV1 cells, 48 h, numeric values

`CC(=O)c1nccc(COc2ccc(C(C)(C)c3ccc(OCC4CCN(c5cccc6c5C(=O)N(C5CCC(=O)NC5=O)C6=O)C4)cc3)cc2)n1` (centres unmarked) [Example 301, 4-(3-((4-(2-(4-((2-acetylpyrimidin-4-yl)methoxy)phenyl)propan-2-yl)phenoxy)methyl)pyrrolidin-1-yl)-2-(2,6-dioxopiperidin-3-yl)isoindolin-1,3-dione] and `CC(=O)c1ncc(COc2ccc(C(C)(C)c3ccc(OCCCCCCCCOCCCCNc4ccc5c(c4)C(=O)N(C4CCC(=O)NC4=O)C5=O)cc3)cc2)cn1` (centres unmarked) [Example 385, 5-((4-((8-(4-(2-(4-((2-acetylpyrimidin-5-yl)methoxy)phenyl)propan-2-yl)phenoxy)octyl)oxy)butyl)amino)-2-(2,6-dioxopiperidin-3-yl)isoindol-1,3-dione] cannot be ordered by DC50: greater than 10000 nM for the first, greater than 2000 nM for the second.

`CC(C)(c1ccc(OCCCCCCCCOCCCCNc2ccc3c(c2)C(=O)N(C2CCC(=O)NC2=O)C3=O)cc1)c1ccc(OCc2ccnc(Nc3ncco3)n2)cc1` (centres unmarked) [Example 226] showed a DC50 greater than 10000 nM.
